Target: HadA (Mycobacterium tuberculosis, UniProt P9WFK1)
Format: binding

Chain of HadA (P9WFK1 whole entry): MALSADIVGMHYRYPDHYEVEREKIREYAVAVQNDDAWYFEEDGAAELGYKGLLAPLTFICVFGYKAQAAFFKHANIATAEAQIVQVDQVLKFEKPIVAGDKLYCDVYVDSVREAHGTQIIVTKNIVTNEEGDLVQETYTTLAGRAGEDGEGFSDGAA

## CCN(CC)c1ccc2cc(-c3ccc(/C=N/NC(N)=S)s3)c(=O)oc2c1 [Coum-TAC, (E)-((5-(7-((N,N)-diethylamino)-2-oxo-2H-chromen-3-yl)thiophen-2-yl)methylene)hydrazine-1-carbothioamide]
  UV-vis, fluorescence and ESI mass spectrometry of re-purified HadA: EthA promotes the formation of a covalent adduct between Coum-TAC and HadA

From PMC8022203 (ACS infectious diseases, 2021)
